{"source": "patent US20200163984A1", "about": "“USE OF ISOVALERYL SPIRAMYCIN I, II AND/OR III IN MANUFACTURING MEDICAMENT FOR TREATING AND/OR PREVENTING TUMOR, AND MEDICAMENT” (SHENYANG FUYANG PHARMACEUTICAL TECHNOLOGY CO., LTD., priority 2017, published 2020)", "key": {"[1]": {"tested_on": "transplanted tumor of human thyroid cancer cell TPC-1", "assay": "TPC-1 transplanted tumor in nude mice", "conditions": "dose 30 mg/kg", "method": "(§1) Then cell concentration was adjusted to 1×10^7/ml with matrigel, then each nude mouse was inoculated subcutaneously with 0.2 ml of cells at its right armpit and recorded as the first day of inoculation. When the tumor grows to be greater than or equal to 100 mm^3, the mice were randomly divided into 11 groups with 6 mice in each group: isovaleryl spiramycin I groups with doses of 25, 50 and 100 mg/kg, isovaleryl spiramycin II groups with doses of 25, 50 and 100 mg/kg, and isovaleryl spiramycin III groups with doses of 25, 50 and 100 mg/kg. Each group was continuously administered intragastrically for 30 days with a dose of 20 ml/kg. The mice were sacrificed the next day after drug withdrawal and the indicators were tested. The long diameter and short diameter of the tumor, and the body weight of each mouse were recorded every 3 days from drug administration to nude mouse sacrifice.\n(§2) The body weight of the nude mice and the long diameter (a) and short diameter (b) of the transplanted tumor were measured every 3 days, and the tumor volume (v), relative tumor volume (RTV) and relative tumor proliferation rate (T/C) are calculated respectively according to the following formulas, wherein V=a×b^2/2; RTV=V/V0 (V0 is the tumor volume before administration, V is the tumor volume before sacrifice), and T/C (%)=treatment group RTV/model control group RTV×100%.\n(§3) Each mouse was weighed and sacrificed. After the tumor was completely stripped off from the body of the mouse, the non-tumor tissues such as blood stains and fat were removed to weigh the tumor and calculate the tumor growth inhibition rate. The average tumor weight of each group of mice is used as an indicator of efficacy. Tumor growth inhibition rate (%)=(1−the average tumor weight of the treatment group/the average tumor weight of the model group)×100%."}, "[2]": {"tested_on": "transplanted tumor of human lymphoma cell U937", "assay": "U937 transplanted tumor in nude mice", "conditions": "U937 nude mice, 30 mg/kg", "method": "as §1, with “U937 cells in a logarithmic growth phase were taken and subjected to a trypan blue exclusion experiment showing that the cell viability was more than 95%, then the cells were subjected to trypsinization, centrifugation, and supernatant removal. Then” for “Then”, “group: a model group, a cyclophosphamide group,” for “group:”\nas §2, §3"}, "[3]": {"assay": "Thymus index and spleen index of Lewis lung cancer tumor-bearing mice", "method": "In the Lewis lung cancer model, the mice inoculated with the tumor were randomly divided into groups with 10 mice in each group the next day of inoculation. The groups included: a model control group, a positive drug cyclophosphamide control group (CTX, 30 mg/kg), isovaleryl spiramycin I groups with doses of 13, 26 and 52 mg/kg; isovaleryl spiramycin II groups with doses of 13, 26 and 52 mg/kg; isovaleryl spiramycin III groups with doses of 13, 26 and 52 mg/kg. Each group was continuously administered intragastrically for 15 days with a dose of 20 ml/kg."}}}
{"smiles": "O=P1(N(CCCl)CCCl)NCCCO1", "note": "(stereo not shown) [Cyclophosphamide, cyclophosphamide, reference compound]", "values": [{"measurement": "Inhibition Rate (%)", "setting": "[1]", "result": 71.29, "unit": "%"}, {"measurement": "Relative Tumor Proliferation Rate (T/C)", "setting": "[1]", "result": 37.40, "unit": "%"}, {"measurement": "Relative Tumor Volume (RTV)", "setting": "[1]", "result": "6.16 ± 2.29"}, {"measurement": "Tumor Weight", "setting": "[1]", "result": "0.69 ± 0.37", "unit": "g"}, {"measurement": "Body Weight (g) (d1)", "setting": "[1]; d 1", "result": "21.56 ± 1.54", "unit": "g"}, {"measurement": "Tumor Volume (mm3) (d 1)", "setting": "[1]; d 1", "result": "117.10 ± 4.88", "unit": "mm3"}, {"measurement": "Body Weight (g) (d30)", "setting": "[1]; d 30", "result": "19.16 ± 1.75", "unit": "g"}, {"measurement": "Tumor Volume (mm3) (d30)", "setting": "[1]; d 30", "result": "724.64 ± 285.14", "unit": "mm3"}, {"measurement": "Inhibition Rate (%)", "setting": "[2]", "result": 65.11, "unit": "%"}, {"measurement": "Relative Tumor Proliferation Rate (T/C)", "setting": "[2]", "result": 35.44, "unit": "%"}, {"measurement": "Relative Tumor Volume (RTV)", "setting": "[2]", "result": "6.04 ± 1.26"}, {"measurement": "Tumor Weight", "setting": "[2]", "result": "0.68 ± 0.12", "unit": "g"}, {"measurement": "Body Weight (g) (d1)", "setting": "[2]; d1", "result": "21.00 ± 0.72", "unit": "g"}, {"measurement": "Tumor Volume (mm3) (d 1)", "setting": "[2]; d1", "result": "125.00 ± 32.61", "unit": "mm3"}, {"measurement": "Body Weight (g) (d30)", "setting": "[2]; d30", "result": "19.72 ± 0.95", "unit": "g"}, {"measurement": "Tumor Volume (mm3) (d30)", "setting": "[2]; d30", "result": "722.72 ± 55.32", "unit": "mm3"}, {"measurement": "spleen index compared with the control group", "setting": "[3]; Lewis tumor-bearing mice, cyclophosphamide, P<0.01", "result": "significantly lower"}, {"measurement": "Spleen Index (%)", "setting": "[3]; dose 26 mg/kg, n = 6", "result": "0.48 ± 0.09", "unit": "%"}, {"measurement": "Thymus Index (%)", "setting": "[3]; dose 26 mg/kg, n = 6", "result": "0.06 ± 0.02", "unit": "%"}]}
